Read-outs that look alike come from different tables or passages of the source.
Type: physicochemical
Protocol: A 10 mL solution of M4N at a concentration of about 10 mg/mL in 40% BP-β-CD was made as follows. About 10 mL of the 40% HP-β-CD solution were added to a glass beaker containing a stir bar. The beaker was placed on a magnetic plate and the stir bar was set to stir at medium speed. About […] of M4N were slowly added to the 40% HP-β-CD in the center of the beaker with the aid of a spatula. The M4N/40% HP-β-CD mixture was stirred for 2 hr or until all M4N was uniformly suspended without any clumps being present. The M4N/40% HP-β-CD mixture was optionally heated at 80° C. for about 30 min. (or longer if a larger volume of solution was desired, for example, 1 hr at 80° C. for 100 mL of the M4N/HP-β-CD mixture), or longer as needed to ensure complete dissolution of M4N. […] The final M4N/40% HP-β-CD solution was stored at room temperature and was kept protected from light. This process may be scaled up or down to obtain the requisite volume or concentration of M4N. Formulations containing M4N in other cyclodextrin solutions may be similarly made, such as, for example, by substituting HP-β-CD in the process described above with other cyclodextrins. […]
A 10 mL solution of M4N at a concentration of about 10 mg/mL in 50% HP-β-CD/0.5% HPMC was made as follows. About 10 mL of the 50% HP-β-CD/0.5% HPMC solution were added to a glass beaker containing a stir bar. The beaker was placed on a magnetic plate and the stir bar was set to stir at medium speed. About 100 mg of M4N were slowly added to the 50% HP-β-CD/0.5% HPMC in the center of the beaker with the aid of a spatula. The M4N/50% HP-β-CD/0.5% HPMC mixture was stirred for 24 hr or until all M4N was uniformly suspended without any clumps being present. The M4N/50% HP-β-CD/0.5% HPMC mixture was heated at about 90° C. for about 30 min. (or longer if a larger volume of solution was desired, for example, 1 hr at 90° C. for 500 mL of the M4N/50% HP-β-CD/0.5% HPMC mixture), or longer as needed to ensure complete dissolution of M4N. […] The final M4N/50% HP-β-CD/0.5% HPMC solution was stored at room temperature and was kept protected from light.
A 10 mL solution of M4N at a concentration of about 20 mg/mL in 5% EC (w/v) (the “EC formulation”) was made as follows. About 10 mL of 5% EC formulation, made as described above, were added to a glass beaker containing a stir bar. The beaker was placed on a magnetic plate and the stir bar was set to stir at medium speed, and covered with a round Teflon® cover. About 200 mg of M4N were slowly added to the 5% EC formulation in the center of the beaker with the aid of a spatula to prevent M4N from sticking to the beaker wall. The M4N/EC mixture was stirred for 2 hr or until all M4N had dissolved or was uniformly suspended without any clumps being present. The M4N/EC mixture was heated at about 60° C. for about 30 min. (or longer if a larger volume of solution was desired, for example, 1 hr at 60° C. for 500 mL of the M4N/EC mixture), or longer as needed to ensure complete dissolution of M4N. […] The final M4N/EC solution was stored at room temperature and was kept protected from light.
A 10 mL solution of M4N at a concentration of about 50 mg/mL in sesame oil was made as follows. About 10 mL of sesame oil were added to a glass beaker containing a stir bar. The beaker was placed on a magnetic plate and the stir bar was set to stir at medium speed. About 500 mg of M4N were slowly added to the sesame oil in the center of the beaker with the aid of a spatula to prevent M4N from sticking to the beaker wall. The M4N/sesame oil mixture was stirred for about 2 hr or until all M4N had dissolved or was uniformly suspended without any clump being present. The M4N/sesame oil mixture was heated at about 60° C. for about 30 min. (or longer if a larger volume of solution was desired, for example, 1 hr at 60° C. for 500 mL of the M4N/sesame oil mixture), or longer as need to ensure complete dissolution of M4N. […]

[1] = M4N 10 mg/mL in 32% HP-β-CD, 20% PEG 400 (v/v)
[2] = M4N 10 mg/mL in 40% HP-β-CD, 1% PVP (w/v)
[3] = M4N 10 mg/mL in 40% HP-β-CD, 5% PEG 400 (v/v)
[4] = M4N 10 mg/mL in 50% HP-β-CD in saline
[5] = M4N 10 mg/mL in 50% HP-β-CD, 0.5% HPMC
[6] = M4N 10 mg/mL in 50% HP-β-CD, 1.25% PVP (w/v)
[7] = M4N 12.5 mg/mL in 12.5% HP-β-CD, 50% PEG 300 (v/v)
[8] = M4N 12.5 mg/mL in 12.5% HP-β-CD, 50% PEG 400 (v/v)
[9] = M4N 12.5 mg/mL in 15% HP-β-CD, 50% PEG 300 (v/v)
[10] = M4N 12.5 mg/mL in 15% HP-β-CD, 50% PEG 400 (v/v)
[11] = M4N 12.5 mg/mL in 20% HP-β-CD, 50% PEG 300 (v/v)
[12] = M4N 12.5 mg/mL in 20% HP-β-CD, 50% PEG 400 (v/v)
[13] = M4N 12.5 mg/mL in 30% HP-β-CD, 25% PEG 400 (v/v)
[14] = M4N 12.9 mg/mL in 23% HP-β-CD, 43% PEG 400 (v/v)
[15] = M4N 12.9 mg/mL in 23% HP-β-CD, 43 PEG 300 (v/v)
[16] = M4N 13.3 mg/mL in 27% HP-β-CD, 33% PEG 300 (v/v)
Throughout, for Dissolution After Cool Down: key: N represents 'No'; Y represents 'Yes.'.

## COc1ccc(C[C@@H](C)[C@@H](C)Cc2ccc(OC)c(OC)c2)cc1OC [Formulation M4N, meso-1,4-bis(3,4-dimethoxyphenyl)-2,3-dimethylbutane]
[1]
  Dissolution After Cool Down: Y
  Dissolution After Rotation: N
M4N 10 mg/mL in 32% HP-β-CD, 20% PEG 400 (v/v), 60°
  Dissolution After Heating at X° C.: Y at 60°
M4N 10 mg/mL in 40% HP-β-CD
  Dissolution After Cool Down: Y
  Dissolution After Rotation: N
[2]
  Dissolution After Heating at X° C.: N
  Dissolution After Rotation: N
M4N 10 mg/mL in 40% HP-β-CD, 2.5% PG (v/v)
  Dissolution After Rotation: N
M4N 10 mg/mL in 40% HP-β-CD, 2.5% PG (v/v), 80°
  Dissolution After Heating at X° C.: N at 80°
[3]
  Dissolution After Cool Down: N
  Dissolution After Rotation: N
M4N 10 mg/mL in 40% HP-β-CD, 5% PEG 400 (v/v), 60°
  Dissolution After Heating at X° C.: Y at 60°
M4N 10 mg/mL in 40% HP-β-CD, 80°
  Dissolution After Heating at X° C.: Y at 80°
M4N 10 mg/mL in 50% HP-β-CD
  Dissolution After Cool Down: Y
  Dissolution After Rotation: N
[4]
  Dissolution After Cool Down: Y
  Dissolution After Rotation: N
M4N 10 mg/mL in 50% HP-β-CD in saline, 90°
  Dissolution After Heating at X° C.: Y at 90°
[5]
  Dissolution After Cool-Down: Y
  Dissolution After Rotation: N
M4N 10 mg/mL in 50% HP-β-CD, 0.5% HPMC, other experiment, no heat
  Dissolution After Rotation: Suspension
[6]
  Dissolution After Heating at X° C.: N
  Dissolution After Rotation: N
M4N 10 mg/mL in 50% HP-β-CD, 90°
  Dissolution After Heating at X° C.: Y at 90°
M4N 10 mg/mL in Corn Oil
  Dissolution After Cool-Down: Y
M4N 10 mg/mL in Mineral Oil
  Dissolution After Cool-Down: Y
M4N 10 mg/mL in Soybean Oil
  Dissolution After Cool-Down: Y
M4N 12 mg/mL in 40% HP-β-CD
  Dissolution After Rotation: N
M4N 12 mg/mL in 40% HP-β-CD, 80°
  Dissolution After Heating at X° C.: N at 80°
[7]
  Dissolution After Cool Down: Y
  Dissolution After Rotation: N
M4N 12.5 mg/mL in 12.5% HP-β-CD, 50% PEG 300 (v/v), 60°
  Dissolution After Heating at X° C.: Y at 60°
[8]
  Dissolution After Cool Down: Y
  Dissolution After Rotation: N
M4N 12.5 mg/mL in 12.5% HP-β-CD, 50% PEG 400 (v/v), 60°
  Dissolution After Heating at X° C.: Y at 60°
[9]
  Dissolution After Cool Down: Y
  Dissolution After Rotation: N
M4N 12.5 mg/mL in 15% HP-β-CD, 50% PEG 300 (v/v), 60°
  Dissolution After Heating at X° C.: Y at 60°
[10]
  Dissolution After Cool Down: Y
  Dissolution After Rotation: N
M4N 12.5 mg/mL in 15% HP-β-CD, 50% PEG 400 (v/v), 60°
  Dissolution After Heating at X° C.: Y at 60°
[11]
  Dissolution After Cool Down: Y
  Dissolution After Rotation: N
M4N 12.5 mg/mL in 20% HP-β-CD, 50% PEG 300 (v/v), 60°
  Dissolution After Heating at X° C.: Y at 60°
[12]
  Dissolution After Cool Down: Y
  Dissolution After Rotation: N
M4N 12.5 mg/mL in 20% HP-β-CD, 50% PEG 400 (v/v), 60°
  Dissolution After Heating at X° C.: Y at 60°
[13]
  Dissolution After Cool Down: Y
  Dissolution After Rotation: N
M4N 12.5 mg/mL in 30% HP-β-CD, 25% PEG 400 (v/v), 60°
  Dissolution After Heating at X° C.: Y at 60°
[14]
  Dissolution After Cool Down: Y
  Dissolution After Rotation: N
M4N 12.9 mg/mL in 23% HP-β-CD, 43% PEG 400 (v/v), 60° C.
  Dissolution After Heating at X° C.: Y at 60 °C
[15]
  Dissolution After Cool Down: Y
  Dissolution After Rotation: N
M4N 12.9 mg/mL in 23% HP-β-CD, 43 PEG 300 (v/v), 60°
  Dissolution After Heating at X° C.: Y at 60°
[16]
  Dissolution After Cool Down: Y
  Dissolution After Rotation: N
M4N 13.3 mg/mL in 27% HP-β-CD, 33% PEG 300 (v/v), 60°
  Dissolution After Heating at X° C.: Y at 60°

Source: patent publication US20090022803A1, “Oral Formulations For Delivery of Catecholic Butanes Including Ndga Compounds” (priority 2005, published 2009)
